Molecular target: T1, human Bradykinin B1 receptor (Homo sapiens, UniProt P46663)
T1 construct: host or cells: CHO-K1
T1 sequence (P46663 1-353): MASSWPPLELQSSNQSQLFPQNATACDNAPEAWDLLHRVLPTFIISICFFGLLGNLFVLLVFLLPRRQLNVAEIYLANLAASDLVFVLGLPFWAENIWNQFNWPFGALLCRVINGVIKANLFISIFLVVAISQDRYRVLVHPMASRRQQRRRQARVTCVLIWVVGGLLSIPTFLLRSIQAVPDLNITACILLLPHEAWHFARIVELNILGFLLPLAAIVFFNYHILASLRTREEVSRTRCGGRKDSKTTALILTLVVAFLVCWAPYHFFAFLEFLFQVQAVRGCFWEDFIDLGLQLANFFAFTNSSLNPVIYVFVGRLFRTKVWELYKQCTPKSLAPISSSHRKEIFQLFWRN
Experiment: Calcium flux Assay (FLIPR) with recombinant CHO-K1 cells expressing human Bradykinin B1 receptor, in presence (hB1 IC50) or absence (hB1 free IC50) of 0.1% BSA
Format: cell-based
Conditions: in absence of 0.1% BSA, read-out: hB1 free IC50

Row | Compound | IC50 [nM]
1 | Cc1nc(C(F)(F)F)nn1-c1ccc(NC(=O)C2(c3cccc(Cl)c3)CC2)cc1-c1nnn[nH]1 [Example 359, 1-(3-chlorophenyl)-N-{4-[5-methyl-3-(trifluoromethyl)-1H-1,2,4-triazol-1-yl]-3-(1H-tetrazol-5-yl)phenyl}cyclopro-panecarboxa-mide] | 676
2 | Cc1nc(C(F)(F)F)nn1-c1ccc(NC(=O)C2(c3ccc(F)c(F)c3)CC2)cc1-c1nnn[nH]1 [Example 360, 1-(3,4-difluorophenyl)-N-{4-[5-methyl-3-(trifluoromethyl)-1H-1,2,4-triazol-1-yl]-3-(1H-tetrazol-5-yl)phenyl}cyclopro-panecarboxa-mide] | 1700
3 | O=C(Nc1ccc(-n2cc(C(F)(F)F)nn2)c(-c2nnn[nH]2)c1)C1(c2ccc(C(F)(F)F)cc2F)CC1 [Example 361, 1-[2-fluoro-4-(trifluoromethyl)phenyl]-N-{3-(1H-tetrazol-5-yl)-4-[4-(trifluoromethyl)-1H-1,2,3-triazol-1-yl]phenyl}cyclopro-panecarboxa-mide] | 419
4 | O=C(Nc1ccc(-n2cnc(C(F)(F)F)c2)c(-c2nnn[nH]2)c1)C1(c2ccc(OC(F)(F)F)cc2F)CC1 [Example 362, 1-[2-Fluoro-4-(trifluoromethoxy)phenyl]-N-{3-(1H-tetrazol-5-yl)-4-[4-(trifluoromethyl)-1H-imidazol-1-yl]phenyl}cyclopro-panecarboxa-mide] | 26.4
5 | O=C(Nc1ccc(-n2ccc(C(F)(F)F)n2)c(-c2nnn[nH]2)c1)C1(c2ccc(OC(F)(F)F)cc2F)CC1 [Example 363, 1-[2-Fluoro-4-(trifluoromethoxy)phenyl]-N-{3-(1H-tetrazol-5-yl)-4-[3-(trifluoromethyl)-1H-pyrazol-1-yl]phenyl}cyclopro-panecarboxa-mide] | 37.1
6 | O=C(Nc1ccc(-n2cc(C(F)(F)F)cn2)c(-c2nnn[nH]2)c1)C1(c2ccc(OC(F)(F)F)cc2F)CC1 [Example 364, 1-[2-fluoro-4-(trifluoromethoxy)phenyl]-N-{3-(1H-tetrazol-5-yl)-4-[4-(trifluoromethyl)-1H-pyrazol-1-yl]phenyl}cyclopro-panecarboxa-mide] | 12.7
7 | Cc1nc(C(F)(F)F)cn1-c1ccc(NC(=O)C2(c3ccc(OC(F)(F)F)cc3F)CC2)cc1-c1nnn[nH]1 [Example 365, 1-[2-Fluoro-4-(trifluoromethoxy)phenyl]-N-{4-[2-methyl-4-(trifluoromethyl)-1H-imidazol-1-yl]-3-(1H-tetrazol-5-yl)phenyl}cyclopro-panecarboxa-mide] | 535
8 | Cc1ccc(C2(C(=O)Nc3ccc(-n4ccc(C(F)(F)F)n4)c(-c4nnn[nH]4)c3)CC2)c(F)c1 [Example 366, 1-(2-Fluoro-4-methylphenyl)-N-{3-(1H-tetrazol-5-yl)-4-[3-(trifluoromethyl)-1H-pyrazol-1-yl]phenyl}cyclopro-panecarboxa-mide] | 94.2
9 | Cc1ccc(C2(C(=O)Nc3ccc(-n4cnc(C(F)(F)F)c4)c(-c4nnn[nH]4)c3)CC2)c(F)c1 [Example 367, 1-(2-Fluoro-4-methylphenyl)-N-{3-(1H-tetrazol-5-yl)-4-[4-(trifluoromethyl)-1H-imidazol-1-yl]phenyl}cyclopro-panecarboxa-mide] | 61.2
10 | Cc1ccc(C2(C(=O)Nc3ccc(-n4cc(C(F)(F)F)cn4)c(-c4nnn[nH]4)c3)CC2)c(F)c1 [Example 368, 1-(2-Fluoro-4-methylphenyl)-N-{3-(1H-tetrazol-5-yl)-4-[4-(trifluoromethyl)-1H-pyrazol-1-yl]phenyl}cyclopro-panecarboxa-mide] | 26
11 | Cc1ccc(C2(C(=O)Nc3ccc(-n4cc(C(F)(F)F)nc4C)c(-c4nnn[nH]4)c3)CC2)c(F)c1 [Example 369, 1-(2-Fluoro-4-methylphenyl)-N-{4-[2-methyl-4-(trifluoromethyl)-1H-imidazol-1-yl]-3-(1H-tetrazol-5-yl)phenyl}cyclopro-panecarboxa-mide] | 1130
12 | Cc1nc(C(F)(F)F)cn1-c1ccc(NC(=O)C2(c3ccc(C(F)(F)F)cc3F)CC2)cc1-c1nnn[nH]1 [Example 370, 1-[2-Fluoro-4-(trifluoromethyl)phenyl]-N-{4-[2-methyl-4-(trifluoromethyl)-1H-imidazol-1-yl]-3-(1H-tetrazol-5-yl)phenyl}cyclopro-panecarboxa-mide] | 873
13 | CCc1ccn(-c2ccc(NC(=O)C3(c4ccc(C)cc4F)CC3)cc2-c2nnn[nH]2)n1 [Example 371, N-[4-(3-ethyl-1H-pyrazol-1-yl)-3-(1H-tetrazol-5-yl)phenyl]-1-(2-fluoro-4-methylphenyl)cyclo-propanecar-boxamide] | 282
14 | CCc1ccn(-c2ccc(NC(=O)C3(c4ccc(C(F)(F)F)cc4F)CC3)cc2-c2nnn[nH]2)n1 [Example 372, N-[4-(3-Ethyl-1H-pyrazol-1-yl)-3-(1H-tetrazol-5-yl)phenyl]-1-[2-fluoro-4-(trifluoromethyl)phenyl]cyclopro-panecarboxamide] | 31.1
15 | CCc1ccn(-c2ccc(NC(=O)C3(c4ccc(OC(F)(F)F)cc4F)CC3)cc2-c2nnn[nH]2)n1 [Example 373, N-[4-(3-Ethyl-1H-pyrazol-1-yl)-3-(1H-tetrazol-5-yl)phenyl]-1-[2-fluoro-4-(trifluoromethoxy)phenyl]cyclo-propanecarboxa-mide] | 24.2
16 | CCc1ccn(-c2ccc(NC(=O)C3(c4cccc(Cl)c4)CC3)cc2-c2nnn[nH]2)n1 [Example 374, 1-(3-Chlorophenyl)-N-[4-(3-ethyl-1H-pyrazol-1-yl)-3-(1H-tetrazol-5-yl)phenyl]cyclopro-panecarboxa-mide] | 1890
17 | CCc1cnn(-c2ccc(NC(=O)C3(c4ccc(C)cc4F)CC3)cc2-c2nnn[nH]2)c1 [Example 375, N-[4-(4-Ethyl-1H-pyrazol-1-yl)-3-(1H-tetrazol-5-yl)phenyl]-1-(2-fluoro-4-methylphenyl)cy-clopropanecar-boxamide] | 60.6
18 | CCc1cnn(-c2ccc(NC(=O)C3(c4ccc(C(F)(F)F)cc4F)CC3)cc2-c2nnn[nH]2)c1 [Example 376, N-[4-(4-Ethyl-1H-pyrazol-1-yl)-3-(1H-tetrazol-5-yl)phenyl]-1-[2-fluoro-4-(trifluoromethyl)phenyl]cyclopro-panecarboxamide] | 12
19 | CCc1cnn(-c2ccc(NC(=O)C3(c4ccc(OC(F)(F)F)cc4F)CC3)cc2-c2nnn[nH]2)c1 [Example 377, N-[4-(4-ethyl-1H-pyrazol-1-yl)-3-(1H-tetrazol-5-yl)phenyl]-1-[2-fluoro-4-(trifluoromethoxy)phenyl]cyclo-propanecarboxa-mide] | 6.57
20 | CCc1cnn(-c2ccc(NC(=O)C3(c4cccc(Cl)c4)CC3)cc2-c2nnn[nH]2)c1 [Example 378, 1-(3-Chlorophenyl)-N-[4-(4-ethyl-1H-pyrazol-1-yl)-3-(1H-tetrazol-5-yl)phenyl]cyclopro-panecarboxa-mide] | 343
21 | Cc1ccc(C2(C(=O)Nc3ccc(-n4ccc(C(C)(C)C)n4)c(-c4nnn[nH]4)c3)CC2)c(F)c1 [Example 379, N-[4-(3-tert-Butyl-1H-pyrazol-1-yl)-3-(1H-tetrazol-5-yl)phenyl]-1-(2-fluoro-4-methylphenyl)cy-clopropanecar-boxamide] | 257
22 | CC(C)(C)c1ccn(-c2ccc(NC(=O)C3(c4ccc(OC(F)(F)F)cc4F)CC3)cc2-c2nnn[nH]2)n1 [Example 381, N-[4-(3-tert-Butyl-1H-pyrazol-1-yl)-3-(1H-tetrazol-5-yl)phenyl]-1-[2-fluoro-4-(trifluoromethoxy)phenyl]cyclo-propanecarboxa-mide] | 36.7
23 | CC(C)(C)c1ccn(-c2ccc(NC(=O)C3(c4cccc(Cl)c4)CC3)cc2-c2nnn[nH]2)n1 [Example 382, N-[4-(3-tert-Butyl-1H-pyrazol-1-yl)-3-(1H-tetrazol-5-yl)phenyl]-1-(3-chlorophenyl)cyclo-propanecarbox-amide] | 768
24 | O=C(Nc1ccc(-c2cc3ccccc3s2)c(-c2nnn[nH]2)c1)C1(c2cccc(Cl)c2)CC1 [Example 383, N-[4-(1-benzothiophen-2-yl)-3-(1H-tetrazol-5-yl)phenyl]-1-(3-chlorophenyl)cyclo-propanecarbox-amide] | 142
25 | O=C(Nc1ccc(-c2cc3ccccc3s2)c(-c2nnn[nH]2)c1)C1(c2ccc(C(F)(F)F)cc2F)CC1 [Example 384, N-[4-(1-benzothiophen-2-yl)-3-(1H-tetrazol-5-yl)phenyl]-1-[2-fluoro-4-(trifluoromethyl)phenyl]cyclopro-panecarboxamide] | 14.9
26 | O=C(Nc1ccc(-c2cc3ccccc3s2)c(-c2nnn[nH]2)c1)C1(c2ccc(F)c(F)c2)CC1 [Example 385, N-[4-(1-benzothiophen-2-yl)-3-(1H-tetrazol-5-yl)phenyl]-1-(3,4-difluorophenyl)cyclo-propanecar-boxamide] | 54.7
27 | O=C(Nc1ccc(-n2ccc(CC(F)(F)F)n2)c(-c2nnn[nH]2)c1)C1(c2cccc(Cl)c2)CC1 [Example 386, 1-(3-chlorophenyl)-N-{3-(1H-tetrazol-5-yl)-4-[3-(2,2,2-trifluoroethyl)-1H-pyrazol-1-yl]phenyl}cyclopro-panecarboxa-mide] | 146
28 | Cc1ccc(C2(C(=O)Nc3ccc(-n4ccc(CC(F)(F)F)n4)c(-c4nnn[nH]4)c3)CC2)c(F)c1 [Example 388, 1-(2-fluoro-4-methylphenyl)-N-{3-(1H-tetrazol-5-yl)-4-[3-(2,2,2-trifluoroethyl)-1H-pyrazol-1-yl]phenyl}cyclopro-panecarboxa-mide] | 33.4
29 | O=C(Nc1ccc(-n2cc(Cl)cn2)c(-c2nnn[nH]2)c1)C1(c2cccc(Cl)c2)CC1 [Example 391, 1-(3-chlorophenyl)-N-[4-(4-chloro-1H-pyrazol-1-yl)-3-(1H-tetrazol-5-yl)phenyl]cyclopro-panecarboxa-mide] | 1890
